Assay results published in PMC8728392, “Synthesis, Anticancer Assessment, and Molecular Docking of Novel Chalcone-Thienopyrimidine Derivatives in HepG2 and MCF-7 Cell Lines” (Oxidative Medicine and Cellular Longevity, 2021).

Key:
HepG2 cells = assay: Annexin V-FITC/PI apoptotic assay; type: cell-based, human
Excerpt: Annexin V-fluorescein isothiocyanate (FITC) and counterstaining with propidium iodide (PI) using the Annexin V-FITC/PI apoptosis detection kit (BD Biosciences, San Diego, CA) were employed to distinguish early and late apoptotic cells according to the manufacturer's directions. Annexin V conjugated with fluorescein isothiocyanate was used to quantify the loss of phosphatidylserine asymmetry in cell membranes involved in apoptosis, and propidium iodide can distinguish between early apoptosis, late apoptotic, and necrotic cells. Analyses were achieved by using a FACSCalibur flow cytometer (BD Biosciences, San Jose, CA).
Cells were gently washed twice with PBS accompanied by tryptic digestion (0.25% trypsin/EDTA) and washed yet again with PBS. All the cells including the floating and adherent ones were harvested, pooled and stained with […] in 1× binding buffer for 15 min at room temperature in the dark. Analyses were achieved by FACS Calibur flow cytometer (BD Biosciences, San Jose, CA).

[1] = tested on: Bax, Bcl-2, caspase-3, and caspase-9 in MCF-7; assay: RT-PCR relative expression of apoptosis markers; type: cell-based, human; conditions: IC50, 8-hour incubation; for expression levels of Bax / expression levels of Bcl-2 / expression levels of caspase-3 / expression levels of caspase-9: vs control
Excerpt: We determined the effect of IC50 concentration of newly synthesized thienopyrimidine derivatives (3a-e and 3g and 3b and 3g) on the relative expression levels of some markers of apoptosis in HepG2 and MCF-7 cell lines, respectively. These included the antiapoptotic marker Bcl-2 as well as the apoptotic markers Bax, caspase-3, and caspase-9 [33]. BIORAD iScript™ One-Step RT-PCR kit with SYBR® Green was used to assess the relative levels of expression of apoptosis markers. The measurement was carried out according to the technique of reverse transcription polymerase chain reaction (RT-PCR) using the Rotor-Gene RT-PCR system, and the method of the used kit was done based on the manufacturer's instructions. The procedure of this assay included the following:
Based on the manufacturer's instructions, the Qiagen RNeasy Extraction Kit (Qiagen Ltd., UK) was used to isolate mRNA from approximately 1 × 10^7 cells according to the cell line.
Mix all the following reagents to get the total volume (50 μl): 2X SYBR® Green RTPCR reaction mixture (25 μl), forward primer […] (1.5 μl), reverse primer […] (1.5 μl), nuclease-free water (11 μl), RNA template (1 pg-100 ng total RNA) (10 μl), and iScript reverse transcriptase (1 μl) for One-Step RT-PCR.
The thermal cycler (Rotor-Gene) program used was as follows: one cycle for reverse transcription at 50°C for 10 minutes and one cycle for RT inactivation/Hot-start activation at 95°C for 5 minutes and then 45 cycles for qPCR (10 s at 95°C, 30 seconds for annealing at 55°C, and 30 seconds for extension at 72°C), and this is followed by the final extension (one cycle) at 72°C for 10 minutes.

HepG2 cell line = assay: Cell cycle analysis (PI, flow cytometry); type: cell-based, human
Protocol: (§1) Cell cycle analysis was performed to decide if the newly synthesized thienopyrimidine derivatives arrested the cell cycle and at what phase of the cell cycle, the HepG2 and MCF-7 cell lines were arrested. The experiments were performed as previously described by Tolba et al.. HepG2 and MCF-7 cell lines were seeded and incubated with the tested compounds in 6-well plates. After incubation overnight, the cells were washed twice with ice-cold phosphate-buffered saline (PBS), detached by EDTA-trypsinization from the plates, harvested by centrifugation, fixed in ice-cold 70% (v/v) ethanol, and washed with phosphate-buffered saline (PBS, pH 7.2 ± 0.2). The cells were resuspended with 0.1 mg/ml RNase, stained with […] propidium iodide (PI), and analyzed by flow cytometry using a FACSCalibur flow cytometer (BD Biosciences, San Jose, CA). CellQuest software (Becton Dickinson) was used to determine the cell cycle distributions after incubation with 5-FU or tested compounds. Exposure of HepG2 and MCF-7 cell lines to these compounds could interfere with the normal cell cycle distribution.

MCF-7 cell line = assay: Cell cycle analysis (PI, flow cytometry); type: cell-based, human; conditions: compared with control cells
Protocol: as §1

MDA in MCF-7 cells = assay: Lipid peroxidation (MDA); type: cell-based, human; conditions: IC50, in comparison to untreated cells
Protocol: MDA is described as a lipid peroxidation product. It reacts with thiobarbituric acid to produce a red substance that is absorbed at 535 nm.
MDA has been described as the product of lipid peroxidation that reacts with thiobarbituric acid to produce a red substance that is absorbed at 535 nm (Kei et al., 1978). HepG2 and MCF7 cells treated with synthetic thienopyrimidine were mixed with 2 ml of solution of trichloroacetic acid (TCA), thiobarbituric acid (TBA) and hydrochloric acid (HCl) and mixed thoroughly, and then heated in a boiling water bath. during 15 minutes. After cooling, the precipitate was removed by centrifugation at 3000 rpm for 10 minutes. Relative to the reagent blank, which measures the absorbance at 535 nm, the blank reagent contains all reagents except cells. The MDA concentration is expressed as nmol/ml using a calibration curve.

[2] = tested on: GR activity in MCF-7 cells; assay: Glutathione reductase (GR) activity; type: cell-based, human; conditions: IC50, in comparison to untreated cells
Protocol: The activity of GR was determined by the decrease in absorbance caused by the oxidation of NADPH during the reduction of oxidized GSH [41].
The activity of GR was determined by the decrease in absorbance caused by the oxidation of NADPH during the reduction of oxidized GSH (Malik et al., 2019). HepG2 or MCF-7cells were pre-treated with newly synthesized chalcone-thienopyrimidines derivatives for 24 hours, harvested and the pellet was re-suspended in twice the volume of protein extraction buffer (PEB). Cells were then vortexed vigorously for 2 min, repeating the cycle three times. Homogenate was then centrifuged at 10,000 rpm for 10 min. The supernatant was collected and was used to quantitate antioxidant enzyme GR using standard protocols. All determinations were made in at least five replicates and the values given are the average of these replicates.

Row | melting point | SMILES | early and late apoptosis (HepG2 cells) | Bax/Bcl-2 ratios [1] | expression levels of Bax [1] | expression levels of Bcl-2 [1] | expression levels of caspase-3 [1] | expression levels of caspase-9 [1] | cell population in G2/M compared with control cells (HepG2 cell line) | cell population in pre-G1 phases compared with control cells (HepG2 cell line) | G1 and pre-G1 arrest (MCF-7 cell line) | MDA (MDA in MCF-7 cells) | GR activity [2]
1 | 194 to 195 °C | CCOC(=O)Cn1c(SCC(=O)Nc2ccc(C(=O)/C=C\c3cccc([N+](=O)[O-])c3)cc2)nc2sc3c(c2c1=O)CC(C)(C)NC3(C)C [Compound 3g, Ethyl (Z)-2-(6,6,8,8-Tetramethyl-2-((2-((4-(3-(3-nitrophenyl)acryloyl)-phenyl)amino)-2-oxoethyl)thio)-4-oxo-5,6,7,8-tetrahydropyrido[4′,3′:4,5]thieno[2,3-d]pyrimidin-3(4H)-yl)acetate] | significantly exhibited early and late apoptosis | strikingly elevated | significant elevation | remarkable decrease | significant elevation | significant elevation | substantial increase | significant increase | significantly (P < 0.05) induced G1 and pre-G1 arrest | significant elevation | significant decline
2 | 172 to 173 °C | CCOC(=O)Cn1c(SCC(=O)Nc2ccc(C(=O)/C=C\c3cc(OC)c(OC)c(OC)c3)cc2)nc2sc3c(c2c1=O)CCN(C(=O)OCC)C3 [Compound 3b, Ethyl (Z)-3-(2-Ethoxy-2-oxoethyl)-4-oxo-2-((2-oxo-2-((4-(3-(3,4,5 trimethoxyphenyl)acryloyl)phenyl)amino)ethyl)thio)-3,5,6,8 tetra-hydropyrido[4′,3′:4,5]thieno[2,3-d]pyrimidine-7(4H)-carboxylate] | significantly exhibited early and late apoptosis | strikingly elevated | significant elevation | remarkable decrease | significant elevation | significant elevation |  | significant increase | significantly (P < 0.05) induced G1 and pre-G1 arrest | significant elevation | significant decline
